# Experimental data as given in ChEMBL document CHEMBL4665622, “Repurposing ibuprofen to control Staphylococcus aureus biofilms” (2019).
# How the values were obtained:
# Cell membrane [1] = test: Effect on surface tension of Staphylococcus aureus CECT 976 assessed as electron acceptor component at 0.5 times of MIC incubated for 1 hr (reference value: 0.5 +/- 0.1 mJ/m2); format: subcellular
# Cell membrane [2] = test: Effect on surface tension of Staphylococcus aureus CECT 976 assessed as electron acceptor component at 0.25 times of MIC incubated for 1 hr (reference value: 0.5 +/- 0.1 mJ/m2); format: subcellular
# Cell membrane [3] = test: Effect on surface tension of Staphylococcus aureus CECT 976 assessed as Lifshitz-van der Waals at MIC incubated for 1 hr (reference value: 40.5 +/- 0.0 mJ/m2); format: subcellular
# Staphylococcus aureus [4] = test: Bactericidal activity against Staphylococcus aureus XU212 assessed as reduction in bacterial growth incubated for 24 hrs by broth microdilution method; format: functional
# Staphylococcus aureus [5] = test: Antibiofilm activity against Staphylococcus aureus RN4220 preform-matured biofilm assessed as reduction in CFU per cm2 at 10 times of MIC incubated upto 24 hrs; format: functional; conditions: time hrs <=24
# Cell membrane [6] = test: Effect on surface tension of Staphylococcus aureus CECT 976 assessed as Lewis acid-base at MIC incubated for 1 hr (reference value: 10.5 +/- 1.3 mJ/m2); format: subcellular
# Cell membrane [7] = test: Effect on surface tension of Staphylococcus aureus CECT 976 assessed as Lewis acid-base at 0.25 times of MIC incubated for 1 hr (reference value: 10.5 +/- 1.3 mJ/m2); format: subcellular
# Staphylococcus aureus [8] = test: Antibiofilm activity against Staphylococcus aureus XU212 preform-matured biofilm assessed as reduction in CFU upto 10 times of MIC incubated upto 24 hrs relative to control; format: functional; design: scale not given: the % may be the effect or the level left; conditions: time hrs <=24
# Cell membrane [9] = test: Destabilization of cytoplasmic membrane integrity in Staphylococcus aureus CECT 976 at MIC incubated for 1 hr by epifluorescence microscope analysis (reference value: 10.6 %); format: subcellular
# Staphylococcus aureus [10] = test: Antibiofilm activity against Staphylococcus aureus RN4220 preform-matured biofilm assessed as increase in biofilm removal at MIC incubated upto 24 hrs relative to control; format: functional; conditions: time hrs <=24
# Staphylococcus aureus [11] = test: Antibacterial activity against Staphylococcus aureus assessed as reduction in bacterial growth incubated for 24 hrs by broth microdilution method; format: functional
# Staphylococcus aureus [12] = test: Bactericidal activity against Staphylococcus aureus SA1199B assessed as reduction in bacterial growth incubated for 24 hrs by broth microdilution method; format: functional
# Staphylococcus aureus [13] = test: Antibiofilm activity against Staphylococcus aureus XU212 preform-matured biofilm assessed as increase in biofilm removal at 5 and 10 times of MIC incubated upto 24 hrs relative to control; format: functional; conditions: time hrs <=24
# Cell membrane [14] = test: Effect on surface tension of Staphylococcus aureus CECT 976 assessed as hydrophobicity at 0.25 times of MIC incubated for 1 hr (reference value: 34.8 +/- 1.3 mJ/m2); format: subcellular
# Staphylococcus aureus [15] = test: Antibiofilm activity against Staphylococcus aureus SA1199B preform-matured biofilm assessed as increase in biofilm inactivation upto 10 times of MIC incubated upto 24 hrs relative to control; format: functional; conditions: time hrs <=24
# Staphylococcus aureus [16] = test: Antibacterial activity against Staphylococcus aureus RN4220 assessed as reduction in bacterial growth incubated for 24 hrs by broth microdilution method; format: functional
# Cell membrane [17] = test: Effect on surface tension of Staphylococcus aureus CECT 976 assessed as electron acceptor component at MIC incubated for 1 hr (reference value: 0.5 +/- 0.1 mJ/m2); format: subcellular
# Staphylococcus aureus [18] = test: Antibiofilm activity against Staphylococcus aureus CECT 976 preform-matured biofilm assessed as increase in biofilm inactivation at upto 10 times of MIC incubated upto 24 hrs relative to control; format: functional; conditions: time hrs <=24
# Staphylococcus aureus [19] = test: Inhibition of cell adhesion in Staphylococcus aureus CECT 976 assessed as decrease in biomass content incubated upto 24 hrs; format: functional, organism-based; conditions: time hrs <=24
# Staphylococcus aureus [20] = test: Antibacterial activity against Staphylococcus aureus SA1199B assessed as reduction in bacterial growth incubated for 24 hrs by broth microdilution method; format: functional
# [21] = Antibacterial activity against Paracoccus yeei assessed as reduction in bacterial growth at pH 5 incubated for 24 hrs by broth microdilution method; format: functional
# Cell membrane [22] = test: Destabilization of cytoplasmic membrane integrity in Staphylococcus aureus CECT 976 at 0.25 times of MIC incubated for 1 hr by epifluorescence microscope analysis (reference value: 10.6 %); format: subcellular
# Cell membrane [23] = test: Destabilization of cytoplasmic membrane integrity in Staphylococcus aureus CECT 976 at 0.5 times of MIC incubated for 1 hr by epifluorescence microscope analysis (reference value: 10.6 %); format: subcellular
# Cell membrane [24] = test: Effect on surface tension of Staphylococcus aureus CECT 976 assessed as electron donor component at MIC incubated for 1 hr (reference value: 55 +/- 0.9 mJ/m2); format: subcellular
# Staphylococcus aureus [25] = test: Inhibition of cell adhesion in Staphylococcus aureus CECT 976 assessed as decrease in CFU at 5 times of MIC incubated upto 24 hrs relative to control; format: functional; conditions: time hrs <=24
# Staphylococcus aureus [26] = test: Antibiofilm activity against Staphylococcus aureus CECT 976 preform-matured biofilm assessed as increase in biofilm removal at upto 10 times of MIC incubated for 24 hrs; format: functional, organism-based; conditions: time 1.0 hrs
# Cell membrane [27] = test: Effect on surface tension of Staphylococcus aureus CECT 976 assessed as hydrophobicity at 0.5 times of MIC incubated for 1 hr (reference value: 34.8 +/- 1.3 mJ/m2); format: subcellular
# Staphylococcus aureus [28] = test: Antibiofilm activity against Staphylococcus aureus SA1199B preform-matured biofilm assessed as increase in biofilm removal at MIC incubated upto 24 hrs relative to control; format: functional; conditions: time hrs <=24
# Cell membrane [29] = test: Disruption of cytoplasmic membrane integrity in Staphylococcus aureus CECT 976 assessed as potassium ion release at 0.25 times of MIC incubated for 1 hr by flame emission and atomic absorption spectroscopy (reference value: 0 mg/L); format: subcellular
# Staphylococcus aureus [30] = test: Antibiofilm activity against Staphylococcus aureus CECT 976 preform-matured biofilm assessed as reduction in CFU per cm2 at MIC incubated for 6 hrs; format: functional
# Staphylococcus aureus [31] = test: Antibiofilm activity against Staphylococcus aureus CECT 976 preform-matured biofilm assessed as increase in biofilm removal at upto 10 times of MIC incubated for 1 hr; format: functional, organism-based
smiles,measurement,setting,value
CC(C)Cc1ccc(C(C)C(=O)O)cc1 (stereo unspecified) [IBUPROFEN],Activity,Cell membrane [1],1.1 mJ/m2
same,Activity,Cell membrane [2],0.7 mJ/m2
same,Activity,Cell membrane [3],38 mJ/m2
same,MBC,Staphylococcus aureus [4],1600 µg/mL
same,Activity,Staphylococcus aureus [5],2.5 log10CFU
same,Activity,Cell membrane [6],12.5 mJ/m2
same,Activity,Cell membrane [7],11.7 mJ/m2
same,Activity,Staphylococcus aureus [8],100%
same,Activity,Cell membrane [9],97.9%
same,Activity,Staphylococcus aureus [10],<=14%
same,MIC,Staphylococcus aureus [11],1250 µg/mL
same,MBC,Staphylococcus aureus [12],1600 µg/mL
same,Activity,Staphylococcus aureus [13],0%
same,Activity,Cell membrane [14],27.3 mJ/m2
same,Activity,Staphylococcus aureus [15],<=55%
same,MIC,Staphylococcus aureus [16],2000 µg/mL
same,Activity,Cell membrane [17],1.7 mJ/m2
same,inhibition (INH),Staphylococcus aureus [18],<=80%
same,inhibition,Staphylococcus aureus [19],Dose-dependent effect
same,MIC,Staphylococcus aureus [20],1000 µg/mL
same,MIC,[21],1250 µg/mL
same,Activity,Cell membrane [22],99.1%
same,Activity,Cell membrane [23],99.8%
same,Activity,Cell membrane [24],50 mJ/m2
same,inhibition (INH),Staphylococcus aureus [25],100%
same,inhibition,Staphylococcus aureus [26],Dose-dependent effect
same,Activity,Cell membrane [27],27.9 mJ/m2
same,Activity,Staphylococcus aureus [28],<=14%
same,Activity,Cell membrane [29],0.51 mg/L
same,Activity,Staphylococcus aureus [30],0.8 log10CFU
same,inhibition,Staphylococcus aureus [31],Dose-dependent effect
